What was measured:
Assay type in all cases: cell-based
[1] = molecular target: T1, RAR alpha (Homo sapiens, UniProt P10276); test: Transactivation test (luciferase reporter, stably transfected HeLa cells), RAR alpha; conditions: for Kd: Schild regression vs reference agonist 4-[2-(5,5,8,8-tetramethyl-5,6,7,8-tetrahydro-2-naphthyl)propenyl]benzoic acid, read-out: RAR alpha Kdapp; for IC50: at the reference agonist concentration that gives 80% activation
T1 sequence (P10276 183-417 limits assumed): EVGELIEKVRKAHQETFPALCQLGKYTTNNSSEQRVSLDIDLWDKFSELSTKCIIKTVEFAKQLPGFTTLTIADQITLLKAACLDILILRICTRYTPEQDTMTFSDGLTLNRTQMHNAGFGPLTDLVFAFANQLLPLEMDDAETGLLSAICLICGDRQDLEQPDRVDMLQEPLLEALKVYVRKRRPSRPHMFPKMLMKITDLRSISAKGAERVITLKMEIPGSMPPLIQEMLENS
Method: (§1) The activation of receptors with an agonist (activator) in HeLa cells leads to the expression of a reporter gene, luciferase, which, in the presence of a substrate, generates light. The activation of the receptors may thus be measured by quantifying the luminescence produced after incubating the cells in the presence of a reference agonist. The inhibitory products displace the agonist from its site, thus preventing activation of the receptor. The activity is measured by quantifying the reduction in light produced. This measurement makes it possible to determine the inhibitory activity of the compounds according to the invention.
(§2) In this study, a constant is determined which represents the affinity of the molecule for the receptor. Since this value can fluctuate depending on the basal activity and the expression of the receptor, it is referred to as the Kd apparent (KdApp).
(§3) To determine this constant, “crossed curves” of the test product against a reference agonist, 4-[2-(5,5,8,8-tetramethyl-5,6,7,8-tetrahydro-2-naphthyl)propenyl]benzoic acid, are performed in 96-well plates. The test product is used at 10 concentrations and the reference agonist at 7 concentrations. In each well, the cells are in contact with a concentration of the test product and a concentration of the reference agonist, 4-[2-(5,5,8,8-tetramethyl-5,6,7,8-tetrahydro-2-naphthyl)propenyl]benzoic acid. Measurements are also taken for the total agonist (4-[2-(5,5,8,8-tetramethyl-5,6,7,8-tetrahydro-2-naphthyl)propenyl]benzoic acid) and inverse agonist, 4-{(E)-3-[4-(4-tert-butylphenyl)-5,5,8,8-tetramethyl-5,6,7,8-tetrahydro-2-naphthyl]-3-oxopropenyl}benzoic acid, controls.
(§4) These crossed curves make it possible to determine the AC50 values (concentration at which 50% activation is observed) for the reference ligand at various concentrations of test product. These AC50 values are used to calculate the Schild regression by plotting a straight line corresponding to the Schild equation (“quantitation in receptor pharmacology” Terry P. Kenakin, Receptors and Channels, 2001, 7, 371-385).
(§5) In the case of an antagonist, an IC50 value (concentration that inhibits 50% of the activity) is calculated by plotting the curve of the product at the concentration of the reference ligand that gives 80% activation.
(§6) The HeLa cell lines used are stable transfectants containing the plasmids ERE-βGlob-Luc-SV-Neo (reporter gene) and RAR (α, β, γ) ER-DBD-puro. These cells are inoculated into 96-well plates at a rate of 10000 cells per well in 100 μl of DMEM medium without phenol red, and supplemented with 10% defatted calf serum. The plates are then incubated at 37° C. and 7% CO2 for 4 hours.
(§7) The various dilutions of the test products, of the reference ligand (4-[2-(5,5,8,8-tetramethyl-5,6,7,8-tetrahydro-2-naphthyl)propenyl]benzoic acid), of the 100% control (100 nM 4-[2-(5,5,8,8-tetramethyl-5,6,7,8-tetrahydro-2-naphthyl)propenyl]benzoic acid) and of the 0% control (500 nM 4-{(E)-3-[4-(4-tert-butylphenyl)-5,5,8,8-tetramethyl-5,6,7,8-tetrahydro-2-naphthyl]-3-oxopropenyl}benzoic acid) are added at a rate of 5 μl per well. The plates are then incubated for 18 hours at 37° C. and 7% CO2.
(§8) The culture medium is removed by turning over and 100 μl of a 1:1 PBS/luciferine mixture is added to each well. After 5 minutes, the plates are read using the luminescence reader.

[2] = molecular target: T2, RAR beta (Homo sapiens, UniProt P10826); test: Transactivation test (luciferase reporter, stably transfected HeLa cells), RAR beta; conditions: for Kd: Schild regression vs reference agonist 4-[2-(5,5,8,8-tetramethyl-5,6,7,8-tetrahydro-2-naphthyl)propenyl]benzoic acid, read-out: RAR beta Kdapp; for IC50: at the reference agonist concentration that gives 80% activation
T2 sequence (P10826 183-417 limits assumed): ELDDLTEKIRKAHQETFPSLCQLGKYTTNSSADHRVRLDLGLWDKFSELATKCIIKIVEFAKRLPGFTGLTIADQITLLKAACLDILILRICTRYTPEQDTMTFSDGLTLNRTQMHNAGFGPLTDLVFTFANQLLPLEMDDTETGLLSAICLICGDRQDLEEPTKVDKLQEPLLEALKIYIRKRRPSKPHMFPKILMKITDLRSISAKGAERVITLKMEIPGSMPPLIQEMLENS
Method: as §1, §2, §3, §4, §5, §6, §7, §8

[3] = molecular target: T3, RAR gamma (Homo sapiens, UniProt P13631); test: Transactivation test (luciferase reporter, stably transfected HeLa cells), RAR gamma; conditions: for Kd: Schild regression vs reference agonist 4-[2-(5,5,8,8-tetramethyl-5,6,7,8-tetrahydro-2-naphthyl)propenyl]benzoic acid, read-out: RAR gamma Kdapp; for IC50: at the reference agonist concentration that gives 80% activation
T3 sequence (P13631 185-419 limits assumed): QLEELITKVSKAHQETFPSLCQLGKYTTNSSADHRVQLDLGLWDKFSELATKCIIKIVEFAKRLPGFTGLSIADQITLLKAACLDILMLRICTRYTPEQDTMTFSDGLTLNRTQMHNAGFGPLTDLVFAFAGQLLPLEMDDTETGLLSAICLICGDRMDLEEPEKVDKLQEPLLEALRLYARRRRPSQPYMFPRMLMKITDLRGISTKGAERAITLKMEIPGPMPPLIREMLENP
Method: as §1, §2, §3, §4, §5, §6, §7, §8

Cc1ccc(C2=CCC(C)(C)c3cc([Se]C#Cc4ccc(C(=O)O)cc4)ccc32)cc1 [Example 1, 4-(8,8-Dimethyl-5-p-tolyl-7,8-dihydro-2-naphthylselanylethynyl)benzoic acid]
Kd [1]: 30 nM
IC50 [1]: 52.5 nM
Kd [2]: 8 nM
IC50 [2]: 12.8 nM
Kd [3]: 2 nM
IC50 [3]: 5 nM

CN(C)c1ccc(C2=CCC(C)(C)c3cc(C(O)C#Cc4ccc(C(=O)O)cc4)ccc32)cc1 (stereo not drawn) [Example 19, 4-{3-[5-(4-Dimethylaminophenyl)-8,8-dimethyl-7,8-dihydro-2-naphthyl]-3-hydroxyprop-1-ynyl}benzoic acid]
Kd [1]: 500 nM
IC50 [1]: 875 nM
Kd [2]: 120 nM
IC50 [2]: 192 nM
Kd [3]: 60 nM
IC50 [3]: 150 nM

Cc1ccc(C2=CCC(C)(C)c3cc([Se]C#Cc4ccc(C(=O)O)c(F)c4)ccc32)cc1 [Example 9, 4-(8,8-Dimethyl-5-p-tolyl-7,8-dihydro-2-naphthylselanylethynyl)-2-fluorobenzoic acid]
Kd [1]: 120 nM
IC50 [1]: 210 nM
Kd [2]: 8 nM
IC50 [2]: 12.8 nM
Kd [3]: 2 nM
IC50 [3]: 5 nM
